Reference: patent US20090054507A1, “CONTROL OF MALIGNANT CELLS BY KINASE INHIBITION” (CLEVELAND STATE UNIVERSITY, priority 2006, published 2009)
“Also recorded” adds a separate entry of the source.

Key:
MEG-01 cells = assay: Flow cytometric DNA content assay using PI/RNAse A; format: cell-based, human; conditions: 10 μM DMAT for 4 days
Protocol: Flow cytometric DNA content assessment assay using PI/RNAse A. Cells were serum starved in order to synchronize them in the GO phase. Treatment with DMAT 10 μM for a period of 4 days was performed and then cells were collected for further processing. Cells were fixed in 80% cold Ethanol/PBS added drop-wise. Before PI staining cells were washed with sterile, RNAse, DNAse free, PBS buffer. Fixed cells were incubated with 50 μg/ml PI and 100 μg/ml RNAse A-I in hypotonic citrate staining buffer for 30 minutes in dark, at room temperature.

tumors of HT1376 cells = assay: Murine xenograft of HT1376 cells, tumor volume; format: in vivo, mice; conditions: DMAT at effective dosage levels (in DMSO) per animal per day, 36 days
Protocol: FIG. 95 illustrates the effect of administration of DMAT s compared to a control over a time period of 36 days. FIG. 95 is a graph of a murine xenograft treated with DMAT, compared to a control. Mice with tumors of HT1376 cells were treated with DMAT at effective dosage levels (in DMSO) per animal per day. The daily animal weight was averaged at 32.5 g at the start of treatment. Tumors were measured daily and tumor volumes were calculated based upon a prolate spheroid model. FIG. 95 illustrates the significant benefits of treatment with DMAT (circles) as compared to the control (squares). Although the tumor size increased for HT1376 cells treated with DMAT, the tumor volume remained approximately one-half of the size as that associated with the untreated HT1376 cells.

[1] = In vivo toxicity study for DMAT; set-up: species or system mouse
Protocol: In vivo toxicity study for DMAT. A male nude mouse (without tumors) was treated with DMAT to determine a toxicity level. A saturated solution of DMAT in DMSO was inoculated daily in the neck subcutaneously (100 μl of 100 mg/ml DMAT in DMSO). Therefore this animal received 10 mg DMAT per day. After 2 weeks this animal was sacrificed and organs were collected for further analysis.

tumors of ACHN cells = assay: Murine xenograft of ACHN cells, tumor volume; format: in vivo, mice; conditions: DMAT at effective dosage levels (in DMSO) per animal per day, 59 days
Protocol: FIG. 94 illustrates the effect of administration of DMAT as compared to a control over a period of 59 days. FIG. 94 is a graph of a murine xenograft treated with DMAT, compared to a control. Mice with tumors of ACHN cells were treated with DMAT at effective dosage levels (in DMSO) per animal per day. The daily animal weight was averaged at 32.5 g at the start of treatment. Tumors were measured daily and tumor volumes were calculated based upon a prolate spheroid model. FIG. 94 illustrates the significant benefits of treatment with DMAT (circles) as compared to the control (squares). […] The differences in tumor volume between control cells and those treated with DMAT, as described herein, are striking.

SW-480 cells = assay: Proliferation assay in vitro, SW-480; format: cell-based, human; conditions: four days
Source text: (§1) Viability (proliferation) assay, Trypan blue exclusion. Cells were counted using a Neubauer hemacytometer.

WM-164 xenografts = assay: In vivo therapy of WM-164 xenografts, tumor volume; set-up: species or system mice
Source text: Creation of the xenografts MCF-7, SW-480 and WM-164. Immunodeficient male and female athymic nude nu/nu mice were used, provided and housed by Dr. Lindner, DJ from Taussig Cancer Center, Cleveland Clinic and Case Western Reserve University. Mice were checked every day. Mice were housed in filtered air flow cabinets with autoclaved bedding at a density of 5 mice/cage. They were fed autoclaved Purina Lab Rodent Chow® 5010 and HCl-acidified distilled water ad libitum and were placed in rooms with controlled temperature, humidity and 12-hr light-dark cycles. Procedures involving animals and their care were conducted in conformity with the institutional guidelines that are in compliance with national and international laws and policies (EEC Council Directive 86/609, OJL 358, Dec. 1, 1987, and the National Institutes of Health Guide for the Care and Use of Laboratory, Animals, NIH Publication 85-23, 1985).
For engraftment, cells in cell culture media were injected. […] Cells were counted with a hemacytometer using Trypan blue (only live cells were counted). […]
In vivo therapy with DMAT of WM-164 xenografts. […] Tumor diameters were measured using a caliper and tumor volume was calculated using the prolate-spheroid formula. […]

MCF-7 cells = assay: Proliferation assay in vitro, MCF-7; format: cell-based, human; conditions: five days
Source text: as §1

[2] = 200 mg/kg per day DMAT (in DMSO), subcutaneous in the neck, 2 weeks

CN(C)c1nc2c(Br)c(Br)c(Br)c(Br)c2[nH]1 [DMAT, 2-dimethylamino-4,5,6,7-tetrabromo-1H-benzimidazole]
DNA content (ploidy) (MEG-01 cells): become polyploid (ploidy higher than 2N) | tumor volume relative to untreated HT1376 cells (tumors of HT1376 cells): approximately one-half | histological analyses of all organs vs control animal (not injected) ([1]; 10 mg/day/animal for 2 weeks): did not show any difference | behavior [1, 2]: generally normal behavior | liver size [1, 2]: appeared to have increased in size | injection site ([1]; 200 mg/kg per day DMAT (in DMSO), subcutaneous in the neck, 2 weeks, male athymic nude mouse): irritated and swollen like a cyst | tumor volume (tumors of ACHN cells): proliferation arrest in vivo for large tumors and tumor ablation in small tumors | cell counts (SW-480 cells; 10 μM DMAT): cell counts between the control and the SW-480 cells treated with 20 μM | cell counts / proliferation (SW-480 cells; 20 μM DMAT): lowest cell counts; also recorded: proliferation arrest | tumor volume (WM-164 xenografts; DMAT 10 mg/kg (in DMSO) per day, fourteen days, control about 50 to about 1000 mm^3): only a slight increase in tumor volume | response of xenograft tumors to treatment (summary) (WM-164 xenografts; small tumors remained at the end of the treatment): significant reduction in tumor volume | cell counts (MCF-7 cells; 10 μM DMAT): cell counts between the control and the MCF-7 cells treated with 20 μM | cell counts / proliferation (MCF-7 cells; 20 μM DMAT): lowest cell counts; also recorded: proliferation arrest
